How the values were obtained:
human A3AR = molecular target: T1, human A3AR (Homo sapiens, UniProt P0DMS8); experiment: Radioligand binding at human A3 AR ([125I]I-AB-MECA, membranes of CHO cells); settings: Example 7; agonist radioligand [125I]47; read-out: AR Affinity Ki, nM, A3
T1 construct: expressed in transfected cells
T1 sequence (P0DMS8 1-318): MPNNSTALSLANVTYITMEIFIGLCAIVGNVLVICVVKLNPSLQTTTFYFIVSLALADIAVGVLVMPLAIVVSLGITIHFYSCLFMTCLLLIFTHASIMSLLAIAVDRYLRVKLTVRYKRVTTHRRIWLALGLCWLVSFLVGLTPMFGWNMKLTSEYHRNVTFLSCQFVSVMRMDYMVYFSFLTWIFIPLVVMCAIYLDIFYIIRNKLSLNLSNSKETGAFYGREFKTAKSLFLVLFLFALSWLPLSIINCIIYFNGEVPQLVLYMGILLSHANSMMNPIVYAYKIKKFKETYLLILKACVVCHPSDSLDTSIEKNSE
Description: Test compounds were prepared as 5 mM stock solutions in DMSO and stored frozen at −20° C.
(§1) CHO cells stably expressing the recombinant hA1 and hA3Rs, and HEK-293 cells stably expressing the hA2AAR were cultured in Dulbecco's modified Eagle medium (DMEM) and F12 (1:1) supplemented with 10% fetal bovine serum, 100 units/mL penicillin, 100 μg/mL streptomycin, and […] glutamine. In addition, 800 μg/mL geneticin was added to the A2A media, while 500 μg/mL hygromycin was added to the A1 and A3 media. After harvesting, cells were homogenized and suspended in PBS. Cells were then centrifuged at 240 g for 5 min, and the pellet was resuspended in 50 mM Tris-HCl buffer (pH 7.5) containing 10 mM MgCl2. The suspension was homogenized and was then ultra-centrifuged at 14,330 g for 30 min at 4° C. The resultant pellets were resuspended in Tris buffer, incubated with adenosine deaminase (3 units/mL) for 30 min at 37° C. The suspension was homogenized with an electric homogenizer for 10 sec, pipetted into 1 mL vials and then stored at −80° C. until the binding experiments were conducted. The protein concentration was measured using the BCA Protein Assay Kit from Pierce Biotechnology, Inc. (Rockford, Ill.).
Into each tube in the binding assay was added 50 μL of increasing concentrations of the test ligand in Tris-HCl buffer (50 mM, pH 7.5) containing 10 mM MgCl2, 50 μl, of the appropriate agonist radioligand, and finally 100 μL of membrane suspension. […] For the A2AAR (20 μg/tube) the radioligand used was [^3H]37 (10 nM). […] Nonspecific binding was determined using a final concentration of 10 μM unlabeled 36 diluted with the buffer. The mixtures were incubated at 25° C. for 60 min in a shaking water bath. Binding reactions were terminated by filtration through Brandel GF/B filters under a reduced pressure using a M-24 cell harvester (Brandel, Gaithersburg, Md.). Filters were washed three times with 3 mL of 50 mM ice-cold Tris-HCl buffer (pH 7.5). […] Filters for A3AR binding were counted using a Packard Cobra II γ-counter. The Ki values were determined using GraphPad Prism for all assays.
Test compounds were prepared as 5-mM stock solutions in DMSO and stored frozen at −20° C.
(§2) Chinese hamster ovary (CHO) cells were generated by stably expressing the recombinant hA1 and hA3 and human embryonic kidney (HEK) 293 cells stably expressing the hA2AAR in DMEM and F12 (1:1) supplemented with 10% fetal bovine serum, 100 units/mL penicillin, 100 μg/mL streptomycin, and 2 μmol/mL glutamine. 800 μg/mL Geneticin were added to the A2A media and 500 μg/mL hygromycin to the A1 and A3 media. After harvesting the cells, they were homogenized with an electric homogenizer for 10 sec, pipetted them into 1-mL vials, and then stored them at −80° C. until the binding experiments were conducted. The protein concentration was measured with a BCA Protein Assay Kit from Pierce Biotechnology (Rockford, Ill.).
Each tube in the binding assay contained 50 μL of increasing concentrations of the test ligand in Tris-HCl buffer (50 mM, pH 7.5) containing 10 mM MgCl2, 50 μL of the appropriate agonist radioligand, and 100 μL membrane suspension, added sequentially. […] For the A2AAR (20 μg/tube), the radioligand [^3H]CGS21680 was used (−10 nM). […] The mixtures were incubated at 25° C. for 60 min in a shaking water bath. The binding reactions were terminated by filtration through Brandel GF/B filters under a reduced pressure with a M-24 cell harvester (Brandel, Gaithersburg, Md.). Filters were washed three times with 3 mL 50-mM ice-cold Tris-HCl buffer (pH 7.5). […] The filters were counted for A3AR binding with a Packard Cobra II γ-counter (PerkinElmer). The Ki values were determined with GraphPad Prism for all assays.

hA2AAR = molecular target: T2, hA2AAR (Homo sapiens, UniProt P29274); experiment: Radioligand binding at human A2A AR ([3H]CGS21680, membranes of HEK-293 cells)
T2 construct: expressed in transfected cells
Description: (§3) [^3H](2-[p-(2-Carboxyethyl)phenyl-ethylamino]-5′-N-ethylcarboxamido-adenosine) (37, [^3H]CGS21680, 40.5 Ci/mmol) and [^125I]N^6-(4-amino-3-iodobenzyl)adenosine-5′-N-methyluronamide (38, [^125I]I-AB-MECA, 2200 Ci/mmol) were purchased from Perkin-Elmer Life and Analytical Science (Boston, Mass.). Test compounds were prepared as 5 mM stock solutions in DMSO and stored frozen at −20° C.
as §1
(§4) Into each tube in the binding assay was added 50 μL of increasing concentrations of the test ligand in Tris-HCl buffer (50 mM, pH 7.5) containing 10 mM MgCl2, 50 μl, of the appropriate agonist radioligand, and finally 100 μL of membrane suspension. For the A1AR (22 μg of protein/tube) the radioligand used was [^3H]36 (final concentration of 3.5 nM). For the A2AAR (20 μg/tube) the radioligand used was [^3H]37 (10 nM). For the A3AR (21 μg/tube) the radioligand used was [^125I]38 (0.34 nM). Nonspecific binding was determined using a final concentration of 10 μM unlabeled 36 diluted with the buffer. The mixtures were incubated at 25° C. for 60 min in a shaking water bath. Binding reactions were terminated by filtration through Brandel GF/B filters under a reduced pressure using a M-24 cell harvester (Brandel, Gaithersburg, Md.). Filters were washed three times with 3 mL of 50 mM ice-cold Tris-HCl buffer (pH 7.5). Filters for A1 and A2AAR binding were placed in scintillation vials containing 5 mL of Hydrofluor scintillation buffer and counted using a Perkin Elmer Liquid Scintillation Analyzer (Tri-Carb 2810TR). Filters for A3AR binding were counted using a Packard Cobra II γ-counter. The Ki values were determined using GraphPad Prism for all assays.
(§5) [^3H](2-[p-(2-carboxyethyl)phenyl-ethylamino]-5′-N-ethylcarboxamido-adenosine) ([^3H]CGS21680, 40.5 Ci/mmol) and [^125I]N^6-(4-amino-3-iodobenzyl)adenosine-5′-N-methyluronamide ([^125I]I-AB-MECA, 2200 Ci/mmol) were purchased from PerkinElmer. Test compounds were prepared as 5-mM stock solutions in DMSO and stored frozen at −20° C.
as §2, with “Ill.). […]” for “Ill.).”

human A1 AR = molecular target: T3, human A1 AR (Homo sapiens, UniProt P30542); experiment: Radioligand binding at human A1 AR ([3H]NECA, membranes of CHO cells); settings: for Ki: Example 7, agonist radioligand [3H]45, read-out: AR Affinity Ki, nM, A1
T3 construct: expressed in transfected cells
T3 sequence (P30542 1-326): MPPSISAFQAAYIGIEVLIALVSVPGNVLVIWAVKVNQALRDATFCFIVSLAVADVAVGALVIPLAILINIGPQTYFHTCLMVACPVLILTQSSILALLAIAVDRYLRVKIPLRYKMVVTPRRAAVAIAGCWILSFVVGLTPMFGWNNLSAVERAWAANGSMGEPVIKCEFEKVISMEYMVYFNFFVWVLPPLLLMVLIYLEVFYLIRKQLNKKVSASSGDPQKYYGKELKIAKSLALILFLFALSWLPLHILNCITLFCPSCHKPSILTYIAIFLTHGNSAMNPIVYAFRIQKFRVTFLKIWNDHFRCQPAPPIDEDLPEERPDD
Description: as §3, §1, §4, §5
as §2, with “Ill.). […]” for “Ill.).”

T2 sequence (P29274 whole entry): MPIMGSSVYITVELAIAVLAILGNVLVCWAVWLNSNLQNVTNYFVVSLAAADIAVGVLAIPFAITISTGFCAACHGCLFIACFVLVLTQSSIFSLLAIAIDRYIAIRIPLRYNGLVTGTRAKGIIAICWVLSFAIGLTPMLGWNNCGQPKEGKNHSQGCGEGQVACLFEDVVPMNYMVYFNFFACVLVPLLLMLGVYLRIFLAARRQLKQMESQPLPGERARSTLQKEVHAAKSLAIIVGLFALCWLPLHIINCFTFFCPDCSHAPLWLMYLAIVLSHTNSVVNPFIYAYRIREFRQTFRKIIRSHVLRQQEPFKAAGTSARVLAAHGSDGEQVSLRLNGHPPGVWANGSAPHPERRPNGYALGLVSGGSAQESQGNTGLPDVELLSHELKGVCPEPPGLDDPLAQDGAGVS

| SMILES | Ki (human A3AR) [nM] | inhibition at 10 µM (hA2AAR) [%] | Ki (human A1 AR) [nM] | inhibition at 10 µM (human A1 AR) [%] |
| --- | --- | --- | --- | --- |
| CNC(=O)[C@@]12C[C@@H]1[C@@H](n1cnc3c(NCc4cccc(C#CCCCCc5cn(-c6ccc(F)c([N+](=O)[O-])c6)nn5)c4)nc(Cl)nc31)[C@H](O)[C@@H]2O [Compound 204, (1S,2R,3S,4R,5S)-4-(2-Chloro-6-(3-(6-(1-(4-fluoro-3-nitrophenyl)-1H-1,2,3-triazol-4-yl)hex-1-ynyl)benzylamino)-9H-purin-9-yl)-2,3-dihydroxybicyclo[3.1.0]hexane-1-carboxylic acid-N-methylamide] | 71.7 ± 54 | 28.6 | 2420 ± 230 |  |
| CNC(=O)[C@@]12C[C@@H]1[C@@H](n1cnc3c(NCc4cccc(C#CCCCCCc5cn(-c6ccc(F)c([N+](=O)[O-])c6)nn5)c4)nc(Cl)nc31)[C@H](O)[C@@H]2O [Compound 205, (1S,2R,3S,4R,5S)-4-(2-Chloro-6-(3-(7-(1-(4-fluoro-3-nitrophenyl)-1H-1,2,3-triazol-4-yl)hept-1-ynyl)benzylamino)-9H-purin-9-yl)-2,3-dihydroxybicyclo[3.1.0]hexane-1-carboxylic acid-N-methylamide] | 30.1 ± 13 | 25.2 | 1290 ± 290 |  |
| CNC(=O)[C@@]12C[C@@H]1[C@@H](n1cnc3c(NCc4cccc(C#CCCCCc5cn(C67CC8CC(CC(C8)C6)C7)nn5)c4)nc(Cl)nc31)[C@H](O)[C@@H]2O [Compound 206, (1S,2R,3S,4R,5S)-4-(2-Chloro-6-(3-(6-(1-(adamantyl)-1H-1,2,3-triazol-4-yl)hex-1-ynyl)benzylamino)-9H-purin-9-yl)-2,3-dihydroxybicyclo[3.1.0]hexane-1-carboxylic acid-N-methylamide] | 21.8 ± 5.3 | 17 | 1720 ± 240 |  |
| O=[N+]([O-])c1cc(-n2cc(CCCC#Cc3cccc(CNc4nc(Cl)nc5c4ncn5[C@H]4[C@H](O)[C@H](O)[C@@H]5C[C@@H]54)c3)nn2)ccc1F [Compound 214, (1R,2R,3S,4R,5S)-4-(2-Chloro-6-(3-(5-(1-(4-fluoro-3-nitrophenyl)-1H-1,2,3-triazol-4-yl)pent-1-ynyl)benzylamino)-9H-purin-9-yl)-bicyclo[3.1.0]hexane-2,3-diol] | 897 ± 20 | 16.7 |  | 11 |
| CNC(=O)[C@@]12C[C@@H]1[C@@H](n1cnc3c(NCc4cn(-c5ccc(F)c([N+](=O)[O-])c5)nn4)nc(Cl)nc31)[C@H](O)[C@@H]2O [Compound 219a, (1S,2R,3S,4R,5S)-4-(2-Chloro-6-((1-(4-fluoro-3-nitrophenyl)-1H-1,2,3-triazol-4-yl)methylamino)-9H-purin-9-yl)-2,3-dihydroxy-N-methylbicyclo[3.1.0]hexane-1-carboxamide] | 9.1 ± 1.9 | 19.3 |  | 38 |

Other lines, results leading:

| Ki (human A3AR) [nM] | inhibition at 10 µM (hA2AAR) [%] | Ki (human A1 AR) [nM] | inhibition at 10 µM (human A1 AR) [%] | SMILES |
| --- | --- | --- | --- | --- |
| 2500 ± 640 | 44.1 |  | 48.5 | C#CCCCCC#Cc1cccc(CNc2nc(Cl)nc3c2ncn3[C@H]2[C@H](O)[C@H](O)[C@@H]3C[C@@H]32)c1 [Compound 212, (1R,2R,3S,4R,5S)-4-(2-Chloro-6-(3-(octa-1,7-diynyl)benzylamino)-9H-purin-9-yl) bicyclo[3.1.0]hexane-2,3-diol] |
| 933 ± 720 | 8.2 |  | 24.3 | O=[N+]([O-])c1cc(-n2cc(CCCCC#Cc3cccc(CNc4nc(Cl)nc5c4ncn5[C@H]4[C@H](O)[C@H](O)[C@@H]5C[C@@H]54)c3)nn2)ccc1F [Compound 215, (1R,2R,3S,4R,5S)-4-(2-Chloro-6-(3-(6-(1-(4-fluoro-3-nitrophenyl)-1H-1,2,3-triazol-4-yl)hex-1-ynyl)benzylamino)-9H-purin-9-yl)-bicyclo[3.1.0]hexane-2,3-diol] |
| 521 ± 250 | 18 |  | 29.5 | O=[N+]([O-])c1cc(-n2cc(CCCCCC#Cc3cccc(CNc4nc(Cl)nc5c4ncn5[C@H]4[C@H](O)[C@H](O)[C@@H]5C[C@@H]54)c3)nn2)ccc1F [Compound 216, (1R,2R,3S,4R,5S)-4-(2-Chloro-6-(3-(7-(1-(4-fluoro-3-nitrophenyl)-1H-1,2,3-triazol-4-yl)hept-1-ynyl)benzylamino)-9H-purin-9-yl)bicyclo[3.1.0]hexane-2,3-diol] |

— patent US8518957B2, “Methanocarba adenosine derivatives, pharmaceutical compositions, and method of reducing intraocular pressure” (The United States of America, as represented by the …, priority 2009, dated 2013)
